Assay [1] has as its target T1, Acetylcholinesterase (Electrophorus electricus, UniProt O42275). The assay is described as follows: Inhibition of electric eel AChE by modified Ellman method.
The target of assay [2] is Cholinesterase (Equus caballus, UniProt P81908).
Description: Inhibition of horse serum BChE by Ellman's method
Assay [3] can be described thus: Selectivity for electric eel AChE over horse serum BChE.
Assay [4] addresses T1, Acetylcholinesterase. The assay is described as follows: Inhibition of electric eel AChE by enzyme kinetics assay.

pIC50, pKi: −log10 of the molar value.

T1 sequence (O42275 whole entry): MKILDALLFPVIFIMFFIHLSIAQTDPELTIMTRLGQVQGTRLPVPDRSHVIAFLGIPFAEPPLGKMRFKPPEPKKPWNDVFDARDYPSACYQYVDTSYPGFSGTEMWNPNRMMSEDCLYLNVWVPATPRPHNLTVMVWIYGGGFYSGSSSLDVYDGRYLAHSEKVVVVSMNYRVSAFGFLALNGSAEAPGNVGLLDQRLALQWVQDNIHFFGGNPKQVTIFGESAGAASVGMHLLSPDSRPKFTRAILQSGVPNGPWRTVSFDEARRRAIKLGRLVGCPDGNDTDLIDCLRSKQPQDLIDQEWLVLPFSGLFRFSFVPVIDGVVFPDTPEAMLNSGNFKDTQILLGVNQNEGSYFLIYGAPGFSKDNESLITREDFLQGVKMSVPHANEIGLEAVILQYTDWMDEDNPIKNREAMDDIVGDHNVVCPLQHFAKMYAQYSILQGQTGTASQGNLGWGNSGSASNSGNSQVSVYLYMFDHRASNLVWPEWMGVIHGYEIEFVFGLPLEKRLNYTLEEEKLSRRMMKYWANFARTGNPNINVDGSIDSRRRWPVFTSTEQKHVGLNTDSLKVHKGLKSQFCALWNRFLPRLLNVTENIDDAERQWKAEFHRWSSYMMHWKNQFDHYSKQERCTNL
Chain of Cholinesterase (P81908 whole entry): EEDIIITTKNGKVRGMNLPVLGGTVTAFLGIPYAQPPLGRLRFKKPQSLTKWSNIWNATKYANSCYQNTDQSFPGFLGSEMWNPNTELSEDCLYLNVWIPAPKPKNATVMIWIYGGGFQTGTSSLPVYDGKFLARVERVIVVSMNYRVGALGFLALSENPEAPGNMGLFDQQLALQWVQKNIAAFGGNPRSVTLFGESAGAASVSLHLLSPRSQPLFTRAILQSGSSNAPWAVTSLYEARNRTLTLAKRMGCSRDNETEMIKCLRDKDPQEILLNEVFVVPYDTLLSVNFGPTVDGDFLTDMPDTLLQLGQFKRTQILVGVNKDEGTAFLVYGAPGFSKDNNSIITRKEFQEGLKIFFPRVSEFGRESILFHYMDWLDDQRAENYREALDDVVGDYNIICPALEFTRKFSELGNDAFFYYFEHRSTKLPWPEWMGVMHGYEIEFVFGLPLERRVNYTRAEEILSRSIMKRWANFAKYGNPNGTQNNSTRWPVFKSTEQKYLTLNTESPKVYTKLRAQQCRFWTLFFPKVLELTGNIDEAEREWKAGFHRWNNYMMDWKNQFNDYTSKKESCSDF

One may read the pIC50 as −log10 of the IC50, conventionally taken in molar units. A low value points to a large IC50. With `COc1ccc2cc3[n+](cc2c1OCCOc1cccc2[nH]c4ccccc4c12)CCc1cc2c(cc1-3)OCO2`, in assay [1], the pIC50 was 5.91.
`COc1ccc2cc3[n+](cc2c1OCCCCOc1cccc2[nH]c4ccccc4c12)CCc1cc2c(cc1-3)OCO2` gave a pIC50 in assay [1] of 6.07.
Regarding `COc1ccc2cc3[n+](cc2c1OCCCOc1ccccc1)CCc1cc2c(cc1-3)OCO2`, the pIC50 in assay [1] was 6.91.
Still for that read-out and setting: under `COc1ccc2cc3[n+](cc2c1OCCOc1ccccc1)CCc1cc2c(cc1-3)OCO2` stands 6.65.
`COc1ccc2cc3[n+](cc2c1OCCCCCOn1nnc2ccccc21)CCc1cc2c(cc1-3)OCO2`: the pIC50 was 6.55 in assay [1] and 5.60 in assay [2]. Also, the Ratio IC50 in assay [3] was found to be 8.9.
Consider `COc1ccc2cc3[n+](cc2c1OCCCCCCOc1ccccc1)CCc1cc2c(cc1-3)OCO2`, for which the pIC50 in assay [1] was 6.28.
The same measure, in the same setting: under `COc1ccc2cc3[n+](cc2c1OCCCOc1cccc2[nH]c4ccccc4c12)CCc1cc2c(cc1-3)OCO2` stands 5.95; under `COc1ccc2cc3[n+](cc2c1OCCCCCOc1cccc2[nH]c4ccccc4c12)CCc1cc2c(cc1-3)OCO2`, 5.77.
As for `COc1ccc2cc3[n+](cc2c1OCCCCCCOn1nnc2ccccc21)CCc1cc2c(cc1-3)OCO2`, in assay [1], the pIC50 was 6.29. For the same compound, in assay [3], the Ratio IC50 turned out to be 5.5.
`COc1ccc2cc3[n+](cc2c1OCCCCCCOc1cccc2[nH]c4ccccc4c12)CCc1cc2c(cc1-3)OCO2` had a pIC50 in assay [1] of 5.68.
As a reminder, the pKi is the negative decadic logarithm of the Ki, by convention in mol/L. Higher therefore signals a small Ki. `COc1ccc2cc3[n+](cc2c1OC)CCc1cc2c(cc1-3)OCO2` [BERBERINE CHLORIDE]: in assay [4], the pKi is 6.54. Further, in assay [1], the pIC50 is 6.43.
`COc1ccc2cc3[n+](cc2c1OCCOn1nnc2ccccc21)CCc1cc2c(cc1-3)OCO2` gave a pIC50 in assay [1] of 6.43.
As for `COc1ccc2cc3[n+](cc2c1OCCCOn1nnc2ccccc21)CCc1cc2c(cc1-3)OCO2`, the pIC50 in assay [1] is 6.44; in assay [2], 5.54. Besides, in assay [3], the Ratio IC50 came out at 8.
In assay [1], `COc1ccc2cc3[n+](cc2c1OCCCCCOc1ccccc1)CCc1cc2c(cc1-3)OCO2` had a pIC50 of 6.40.
For `COc1ccc2cc3[n+](cc2c1OCCCCOn1nnc2ccccc21)CCc1cc2c(cc1-3)OCO2`, the pIC50 in assay [1] is 6.65; in assay [2] it was 5.38. Further, in assay [3], the Ratio IC50 was 18.6.
